Patent US12472226B2, “Cell-permeable peptide” (priority 2019, dated 2025)
Non-standard residues stand in square brackets, D forms with d. No end group written: not given here. *: point of attachment. FITC = O=C1OC2(c3ccc(O)cc3Oc3cc(O)ccc32)c2ccc(NC(=S)*)cc21; Ahx = NCCCCCC(=O)O

How the values were obtained:
Format in all cases: cell-based, human
[1] = system: Gin-1 cells; assay: Test of inducing cell-death in vitro (Calcein-AM/PI dead cell rate); conditions: 50 μg/mL, 9 days
Source text: (§1) Human fibrosarcoma-derived HT-1080 cells (HT-1080 cells, JCRB cell bank) were used as cancer cells in the test for monitoring changes in mitochondrial membrane potential. HT-1080 cells, human osteosarcoma cell line Hos cells (Hos cells, JCRB cell bank), human histiocytic lymphoma/macrophage U937 cells (U937 cells, JCRB cell bank), human myeloid leukemia HL-60 cells (HL-60 cells, JCRB cell bank), acute monocytic leukemia THP-1 cells (THP-1 cells, JCRB cell bank), human alveolar basal epithelial adenocarcinoma cell A549 cells (A549 cells, Cell Resource Center for Biomedical Research, Institute of Development, Aging and Cancer, Tohoku University), human pancreatic carcinoma cells (MIA Paca 2 cells, Cell Resource Center for Biomedical Research, Institute of Development, Aging and Cancer, Tohoku University) and well differentiated human liver carcinoma-derived cell line HuH7 cells (HuH7 cells, Cell Resource Center for Biomedical Research, Institute of Development, Aging and Cancer, Tohoku University) were used as cancer cells in an in vitro cell-death induction test of cancer cells and a nuclear transport test of Example 2. Normal human gingival fibroblast cells Gin-1 (Gin-1 cells, DS Pharma Biomedical) were used as a control. The above-described cells were each inoculated into a 96-well culture plate (Falcon) at 5,000 cells/[…] and subjected to the following tests.
(§2) The peptide of SEQ ID NO: 1 labeled with FITC (Example 2) was used for the test of inducing cell-death in vitro in cancer cells. It was prepared the test example to which 100 μL of Example 2 and further 10% FBS were added and cultured for 9 days under conditions of 200 μL of serum-supplemented medium (Alpha modification of Eagle's MEM (α-MEM) (Thermo Fisher Scientific)+10% FBS). Furthermore, it was also produced the test example that was cultured for 21 days with the whole amount of Example 2-supplemented medium replaced every 7 days. As a control, the cells were cultured in a serum-supplemented medium (α-MEM+10% FBS) without addition and were used. A supernatant was removed after the completion of the culture. The cells were washed once with PBS and stained in PBS to which a fluorescent dye for living cell staining Calcein-AM (DOJINDO LABORATORIES) (final concentration: 0.1 μg/mL) and a fluorescent dye for dead cell staining Propidium Iodide (PI) (DOJINDO LABORATORIES) (final concentration: 0.3 μg/mL) were added, at 37° C. in a 5% CO2 cell incubator for 30 minutes. The living cells and dead cells were separately stained with Calcein-AM and PI, respectively and imaged with the confocal laser scanning microscope LSM800. Next, the dead cell rate relative to the number of total cells was analyzed using ImageJ.
(§3) The results are represented by the average value of the dead cell rate (the number red cells stained with IP/the number of total cells×100(%))±standard deviation (SD). In FIG. 2A, the vertical axis represents the rate of cell death when each cell was cultured with Example 2 (50 μg/mL) for 9 days and the horizontal axis represents various types of cells. The increase in the dead cell rate of the Gin-1 cells was not observed.

[2] = system: HL-60 cells; assay: as above; conditions: 50 μg/mL, 9 days
Source text: as §1, §2, §3

[3] = system: Hos cells; assay: as above; conditions: 50 μg/mL, 9 days
Source text: as §1, §2, §3

[4] = system: THP-1 cells; assay: as above; conditions: 50 μg/mL, 9 days
Source text: as §1, §2, §3

[5] = system: U937 cells; assay: as above; conditions: 50 μg/mL, 9 days
Source text: as §1, §2, §3

[6] = system: HT-1080 cells; assay: Test on nuclear transport (confocal, DAPI); conditions: 50 μg/mL; for intracellular localization: HT-1080 cells
Source text: as §1
The cells were cultured in 200 μL of serum-supplemented medium (α-MEM+10% FBS) to be 50 μg/mL at the final concentration of Example 2 for 3 or 9 days. The cell-death was not detected in the culture on day 3. On the contrary, since the cell-death was detected in the culture on day 9, the day 9 culture as described above was used for the tests. The above each cell was separated and transferred to a Cellview glass bottom dish (35×10 mm) (Greiner). The cells on day 3 were fixed with 10% formalin-ethanol and then dyed with DAPI. The cells on day 9 were dyed with DAPI without fixation.
FIG. 4 is the photographs of Example 2 (green), DAPI (blue), overlay images of Example 2 (green) and DAPI (blue) and differential interference image on the HT-1080 cells on day 3 or 9.

[7] = system: Gin-1 cells; assay: Test on nuclear transport (confocal Z scan, DAPI); conditions: 50 μg/mL, 9 days
Source text: as §1
(§4) Further, 50 μg/mL of Example 2 was added to the Gin-1 or above cancer cells. The cells were cultured for 9 days and scanned with Z scan technique using the confocal laser scanning microscope LSM800 after dyed with DAPI. FIG. 5A is each photograph of XY, XZ and YZ cross sections that was merged with Example 2 (green) and DAPI (blue) in the Gin-1 or above-described cancer cells. […] The color of the images merged with the Example 2 and DAPI dye took on light blue in the U937, H1-60, THP-1 and Hos cells.

[8] = system: HL-60 cells; assay: Test on nuclear transport (confocal Z scan, DAPI); conditions: H1-60 cells, 50 μg/mL, 9 days
Source text: as §1, §4

[9] = system: Hos cells; assay: Test on nuclear transport (confocal Z scan, DAPI); conditions: 50 μg/mL, 9 days
Source text: as §1, §4

[10] = system: THP-1 cells; assay: Test on nuclear transport (confocal Z scan, DAPI); conditions: 50 μg/mL, 9 days
Source text: as §1, §4

[11] = system: U937 cells; assay: Test on nuclear transport (confocal Z scan, DAPI); conditions: 50 μg/mL, 9 days
Source text: as §1, §4

[12] = system: A549 cells; assay: Test on nuclear transport (confocal Z scan, DAPI); conditions: 50μ/mL, 23 days
Source text: as §1
(§5) Similarly, 50μ/mL of Example 2 was added to the A549, MIA Paca2 and HuH7 cells. The cells were cultured for 23 days and then scanned by the Z scan technique using the confocal laser scanning microscope LSM800 after dyed with DAPI. FIG. 5B is each photograph of XY, XZ and YZ cross sections that were merged with Example 2 (green) and DAPI (blue) in the variety of cancer cells. As a result, the color of the images merged with Example 2 and DAPI dye took on light blue.

[13] = system: HuH7 cells; assay: Test on nuclear transport (confocal Z scan, DAPI); conditions: 50μ/mL, 23 days
Source text: as §1, §5

[14] = system: MIA Paca2 cells; assay: Test on nuclear transport (confocal Z scan, DAPI); conditions: 50μ/mL, 23 days
Source text: as §1, §5

## Example 2: peptide of SEQ ID NO: 1 labeled with FITC, bound via an Ahx linker at the N-terminus ({FITC}-[Ahx]KDNRGNLLQCVCTGNGRGEWKC; cysteine pairing not given here)
[1]
  increase in the dead cell rate vs control: not observed
[2]
  increase in the dead cell rate vs control: significant difference at the level of 1%
[3]
  increase in the dead cell rate vs control: significant difference at the level of 1%
[4]
  increase in the dead cell rate vs control: significant difference at the level of 5%
[5]
  increase in the dead cell rate vs control: significant difference at the level of 1%
[6]; day 3
  cell-death in the culture: not detected
  intracellular localization: present at a cytoplasm
[6]; day 9
  cell-death in the culture: detected
  intracellular localization: transferred to a nucleus and bound to a chromosome DNA
[7]
  intracellular localization: remain still in the cytoplasm
[8]
  intracellular localization: transfer to a nucleus and bind to a chromosome DNA
[9]
  intracellular localization: transfer to a nucleus and bind to a chromosome DNA
[10]
  intracellular localization: transfer to a nucleus and bind to a chromosome DNA
[11]
  intracellular localization: transfer to a nucleus and bind to a chromosome DNA
[12]
  intracellular localization: transfer to a nucleus and bind to a chromosome DNA
[13]
  intracellular localization: transfer to a nucleus and bind to a chromosome DNA
[14]
  intracellular localization: transfer to a nucleus and bind to a chromosome DNA
